PMC5940854, “Nitrothiophene carboxamides, a novel narrow spectrum antibacterial series: Mechanism of action and Efficacy” (Scientific Reports, 2018)
In brackets after ≈: the same amount, converted by molar mass.

What was measured:
Assay type in all cases: cell-based
[1] = tested on: Shigella flexneri clinical strain; test: MIC, Shigella flexneri
Method: (§1) The inoculum used for all the experiments is derived from a single seed lot that is maintained as glycerol stocks at −80 °C and are sub cultured on LB plate for isolated colonies. Single colony of each strain is grown in M9 medium. All test compound stocks and dilutions are prepared in DMSO. Serial two-fold dilutions of compounds are prepared separately, with the concentrations ranging from 2 mg/mL to 0.015 mg/mL. To 150 µl (3–7 × 10^5 CFU/ml) of bacterial culture in 96 well microtitre plates, 3 μL compound from each of the dilutions is added to respective wells to obtain final concentrations ranging from 40 µg/mL to 0.3 µg/mL of the test compounds. Media control, culture control and appropriate reference drug controls are included. […] Growth is monitored by checking absorbance at 600 nm (A600). […] The samples from MIC and above concentrations are plated for MBC (Minimum Bactericidal Concentration). The samples are diluted 1:10 and plated on LB agar plates. […] The killing kinetics is determined by enumerating survivors at various time points following compound exposure. E. coli cells (~10^7 CFU/ml; A600 of 0.1) are treated with various concentrations (40 µg/mL to 0.3 µg/mL) of compounds in a 96-well microtitre plate. […] Data is expressed as the log10 CFU for each drug treatment.

[2] = tested on: E. coli hsrA knockout strain; test: MIC, efflux pump knockout hsrA; settings: Escherichia coli, read-out: MIC hsrA
Method: as §1

[3] = tested on: E. coli yciM knockout strain; test: MIC, efflux pump knockout yciM; settings: Escherichia coli, read-out: MIC yciM
Method: as §1

[4] = tested on: E. coli mdtL knockout strain; test: MIC, efflux pump knockout mdtL; settings: Escherichia coli, read-out: MIC mdtL
Method: as §1

SMILES | MIC Shigella flexneri [1] | MIC [2] | MIC [3] | MIC [4]
O=C(Nc1nc(-c2ccc(F)cc2F)cs1)c1ccc([N+](=O)[O-])s1 [compound 12, N-(4-(2,4-difluorophenyl)thiazol-2-yl)-5-nitrothiophene-2-carboxamide] | 10 µg/mL (≈ 27.2 µM) | – | – | –
Cc1sc(NC(=O)c2ccc([N+](=O)[O-])s2)nc1-c1ccccc1 [compound 7, N-(5-Methyl-4-phenylthiazol-2-yl)-5-nitrothiophene-2-carboxamide] | – | > 40 µg/mL | > 40 µg/mL | > 40 µg/mL
